US10078087B2, “Assays and enhancers of the human delta ENaC sodium channel” (SENOMYX, INC., priority 2001, dated 2018)

What was measured:
αβγ hENaC = biological target: T1, αβγ hENaC (Homo sapiens, UniProt P37088+P51168+P51170); experiment: two-electrode voltage clamp of oocytes expressing alpha beta gamma hENaC; format: cell-based
T1 construct: expressed in transfected cells; host or cells: Xenopus laevis oocytes injected with cRNA of each subunit
T1 sequence (P37088 1-669): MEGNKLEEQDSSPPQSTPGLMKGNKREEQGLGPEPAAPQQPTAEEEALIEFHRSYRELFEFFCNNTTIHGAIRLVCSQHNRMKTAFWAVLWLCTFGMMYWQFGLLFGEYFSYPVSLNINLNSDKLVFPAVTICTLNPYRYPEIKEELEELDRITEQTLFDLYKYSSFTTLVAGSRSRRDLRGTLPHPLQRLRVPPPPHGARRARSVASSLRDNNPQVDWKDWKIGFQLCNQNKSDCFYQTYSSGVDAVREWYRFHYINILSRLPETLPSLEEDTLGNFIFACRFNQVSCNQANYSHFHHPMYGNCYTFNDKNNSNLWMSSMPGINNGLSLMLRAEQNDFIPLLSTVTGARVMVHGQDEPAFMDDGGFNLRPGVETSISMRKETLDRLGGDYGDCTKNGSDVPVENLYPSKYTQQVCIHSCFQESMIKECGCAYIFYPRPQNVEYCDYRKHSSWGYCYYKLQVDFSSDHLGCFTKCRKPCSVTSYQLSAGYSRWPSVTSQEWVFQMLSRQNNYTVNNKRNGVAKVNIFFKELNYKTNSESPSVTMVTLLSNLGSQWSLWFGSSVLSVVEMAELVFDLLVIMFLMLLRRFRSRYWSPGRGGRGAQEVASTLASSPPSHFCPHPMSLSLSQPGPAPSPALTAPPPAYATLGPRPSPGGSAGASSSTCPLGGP
T1 sequence (P51168 1-640): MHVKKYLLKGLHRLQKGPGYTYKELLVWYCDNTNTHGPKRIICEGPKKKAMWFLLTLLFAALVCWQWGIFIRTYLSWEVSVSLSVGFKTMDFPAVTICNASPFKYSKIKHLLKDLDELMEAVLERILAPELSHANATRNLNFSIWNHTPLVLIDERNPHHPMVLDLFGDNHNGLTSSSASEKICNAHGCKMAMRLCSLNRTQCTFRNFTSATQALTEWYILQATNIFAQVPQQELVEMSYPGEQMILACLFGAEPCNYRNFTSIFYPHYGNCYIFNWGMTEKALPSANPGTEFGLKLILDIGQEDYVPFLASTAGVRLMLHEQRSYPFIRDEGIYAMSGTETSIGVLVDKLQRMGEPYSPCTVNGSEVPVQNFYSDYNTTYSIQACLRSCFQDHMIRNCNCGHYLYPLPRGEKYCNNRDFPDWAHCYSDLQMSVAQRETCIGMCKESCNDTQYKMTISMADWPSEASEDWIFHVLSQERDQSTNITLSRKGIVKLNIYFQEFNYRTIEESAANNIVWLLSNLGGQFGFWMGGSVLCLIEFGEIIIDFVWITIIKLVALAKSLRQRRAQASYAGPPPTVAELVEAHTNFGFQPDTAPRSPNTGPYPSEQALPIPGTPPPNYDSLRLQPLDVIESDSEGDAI
T1 sequence (P51170 1-649): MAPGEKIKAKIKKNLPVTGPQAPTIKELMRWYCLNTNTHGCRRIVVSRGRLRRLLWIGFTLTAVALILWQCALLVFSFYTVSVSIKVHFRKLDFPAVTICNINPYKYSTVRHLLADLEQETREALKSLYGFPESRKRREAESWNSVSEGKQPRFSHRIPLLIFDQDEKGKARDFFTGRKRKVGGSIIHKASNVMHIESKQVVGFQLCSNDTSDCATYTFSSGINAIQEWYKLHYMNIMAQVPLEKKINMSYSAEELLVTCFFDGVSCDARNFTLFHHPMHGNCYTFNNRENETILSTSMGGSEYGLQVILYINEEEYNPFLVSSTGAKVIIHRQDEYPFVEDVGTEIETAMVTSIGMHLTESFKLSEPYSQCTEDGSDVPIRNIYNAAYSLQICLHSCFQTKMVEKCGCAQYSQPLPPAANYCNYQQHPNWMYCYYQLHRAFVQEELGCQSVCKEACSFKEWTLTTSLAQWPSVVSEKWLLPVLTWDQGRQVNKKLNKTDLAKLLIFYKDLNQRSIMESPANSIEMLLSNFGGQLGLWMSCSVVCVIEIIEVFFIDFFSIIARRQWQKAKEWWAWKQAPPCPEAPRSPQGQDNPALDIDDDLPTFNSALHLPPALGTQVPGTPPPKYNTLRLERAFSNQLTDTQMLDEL
Description: α, β, and γ hENaC were cloned from kidney cDNA (Origene, Rockville, Md.) into pcDNA3 (Invitrogen, Carlsbad, Calif.) as described previously (Kellenberger, S and Schild, L. Physiol. Rev. 82:735-767(2002). δ hENaC was cloned from testis cDNA (BD Biosciences Clontech, Palo Alto, Calif.). α hENaC sequence was identical to published sequences from lung and kidney (Rossier et al., Annu. Rev. Physiol. 64:877-897 (2002); Alvarez de la Rosa et al., Annu. Rev. Physiol. 62:573-594 (200). (Genbank accession numbers X76180 and L29007). β hENaC sequence was identical to published sequence from lung Bigiani et al. Bigiani et al., Prog. […] (Genbank accession number X87159) with the exception of a glycine (nucleotide triplet GGC) to alanine (nucleotide triplet GCC) substitution in our clone at amino acid 314. […]
ENaC cRNA was generated from linearized plasmids using the mMESSAGE mMACHINE kit with T7 RNA polymerase according to the manufacturer's instructions (Ambion, Austin, Tex.). cRNA quality was checked by denaturing agarose gel electrophoresis and spectrophometric absorbance readings at 260 and 280 nm to ensure that full-length, non-degraded cRNA was generated. […]

[1] = test system: human salty taste perception; experiment: effect of amiloride on human salty taste perception; format: in vivo; details: humans; levels ~300-fold above IC50 for αβγ ENaC (~10-fold over IC50 for δβγ ENaC) in oocytes
[2] = test system: human salty taste perception; details: humans; concentrations that specifically modulate ENaC function; cited from earlier work
δβγ hENaC = biological target: T2, δβγ hENaC (Homo sapiens, UniProt P51168+P51170+P51172); experiment: two-electrode voltage clamp of oocytes expressing delta beta gamma hENaC; format: cell-based
T2 construct: expressed in transfected cells; host or cells: Xenopus laevis oocytes injected with cRNA of each subunit
T2 sequence (P51172 1-638 isoform P51172-1): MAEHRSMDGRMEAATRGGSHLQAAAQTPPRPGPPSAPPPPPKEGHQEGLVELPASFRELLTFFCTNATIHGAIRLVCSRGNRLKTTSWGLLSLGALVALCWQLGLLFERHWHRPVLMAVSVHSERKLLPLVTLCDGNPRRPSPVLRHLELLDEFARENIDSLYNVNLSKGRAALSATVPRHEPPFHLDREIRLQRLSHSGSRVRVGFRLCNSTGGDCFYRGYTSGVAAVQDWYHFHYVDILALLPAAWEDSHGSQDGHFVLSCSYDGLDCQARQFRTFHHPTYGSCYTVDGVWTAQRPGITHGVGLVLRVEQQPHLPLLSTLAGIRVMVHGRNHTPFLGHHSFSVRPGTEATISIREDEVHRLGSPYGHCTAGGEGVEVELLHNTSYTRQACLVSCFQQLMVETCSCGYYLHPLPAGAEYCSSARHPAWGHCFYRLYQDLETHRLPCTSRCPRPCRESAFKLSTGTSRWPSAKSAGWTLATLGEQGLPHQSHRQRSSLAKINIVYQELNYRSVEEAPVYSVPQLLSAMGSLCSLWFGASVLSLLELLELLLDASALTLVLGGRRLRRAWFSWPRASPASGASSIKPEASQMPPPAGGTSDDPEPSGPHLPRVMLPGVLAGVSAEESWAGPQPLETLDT
T2 sequence (P51168 1-640): T1 sequence (P51168 1-640)
T2 sequence (P51170 1-649): T1 sequence (P51170 1-649)
Description: α, β, and γ hENaC were cloned from kidney cDNA (Origene, Rockville, Md.) into pcDNA3 (Invitrogen, Carlsbad, Calif.) as described previously (Kellenberger, S and Schild, L. Physiol. Rev. 82:735-767(2002). δ hENaC was cloned from testis cDNA (BD Biosciences Clontech, Palo Alto, Calif.). α hENaC sequence was identical to published sequences from lung and kidney (Rossier et al., Annu. Rev. Physiol. 64:877-897 (2002); Alvarez de la Rosa et al., Annu. Rev. Physiol. 62:573-594 (200). (Genbank accession numbers X76180 and L29007). β hENaC sequence was identical to published sequence from lung Bigiani et al. Bigiani et al., Prog. Biophys. Mol. Biol. 83:193-225 (2003). (Genbank accession number X87159) with the exception of a glycine (nucleotide triplet GGC) to alanine (nucleotide triplet GCC) substitution in our clone at amino acid 314. […] (GenBank accession number BC059391). δ hENaC sequence was identical to published sequence from kidney (Shimkets et al., Cell 79: 407414 (1994)) with the exception of a tyrosine (nucleotide triplet TAC) to cysteine (nucleotide triplet TGC) substitution in our clone at amino acid 532.
ENaC cRNA was generated from linearized plasmids using the mMESSAGE mMACHINE kit with T7 RNA polymerase according to the manufacturer's instructions (Ambion, Austin, Tex.). cRNA quality was checked by denaturing agarose gel electrophoresis and spectrophometric absorbance readings at 260 and 280 nm to ensure that full-length, non-degraded cRNA was generated.
Female Xenopus laevis South African clawed frogs greater than or equal to 9 cm in length were obtained from NASCO (Fort Atkinson, Wis.). Frogs were anesthetized in 0.15% ethyl-3-aminobenzoate methanesulfonate (Sigma, St. Louis, Mo.) in distilled water and placed on ice. […]
Unless noted otherwise, ENaC function was measured using the two-electrode voltage clamp technique on an OpusXpress 6000A parallel oocyte voltage clamp system twenty-four hours post-microinjection (Axon Instruments, Union City, Calif.). […]

[3] = compound concentration not given, N = 5-7 oocytes

| Compound | inhibition at 1 µM (αβγ hENaC) [%] | effect on perceived salt intensity [1] | reduction of intensity of sodium chloride taste [2] | inhibition at 10 µM (δβγ hENaC) [%] | IC50 (δβγ hENaC; Xenopus oocytes, n=10, mean±SEM) [nM] | % Enhance αβγ (αβγ hENaC; [3]) | % Enhance δβγ (δβγ hENaC; [3]) |
| --- | --- | --- | --- | --- | --- | --- | --- |
| N=C(N)NC(=O)c1nc(Cl)c(N)nc1N [amiloride] | > 90 | did not elicit a significant effect | 15-20% | > 90 | 2700 ± 300 | – | – |
| Choline C1 | – | – | – | – | – | 53 +/− 17% | 52 +/− 5% |
